Experimental data as given in ChEMBL document CHEMBL1136361, “5-amino-1-(2,6-dichloro-4-trifluoromethyl-phenyl)-3-[3H3]-methylsulfanyl-1H-pyrazole-4-carbonitrile (CTOM): synthesis and characterization of a novel and selective insect GABA receptor radioligand” (Bioorg Med Chem Lett, 2003).

Key:
[1] = In vitro binding affinity against GABA receptor in mouse brain; format: tissue-based
[2] = In vitro binding affinity against GABA receptor in house fly; design: species or system Musca domestica
[3] = Mortality percent was determined in flea; range is 50-100%; format: ADME; conditions: pulicinae

| Ki [1] [nM] | Ki [2] [nM] | Structure (SMILES) | Mortality [3] [%] |
| --- | --- | --- | --- |
| 4 | 8 | CSc1nn(-c2c(Cl)cc(C(F)(F)F)cc2Cl)c(N)c1C#N |  |
|  |  | N#Cc1nn(-c2c(Cl)cc(C(F)(F)F)cc2Cl)c(N)c1[S+]([O-])C(F)(F)F (stereo not drawn) [FIPRONIL] | 50 |
